The values that follow come from patent publication US11191758B2, “Use of selective serotonin 5-HT1A receptor agonists for treating side-effects of VMAT inhibitors” (Neurolixis, priority 2017, dated 2021).

“Also recorded” adds a separate entry of the source. Like-named read-outs stand apart in the source and are kept apart here.

For orientation: Emax means the size of the effect at its maximum, as opposed to the concentration needed.

Series [1] concerns the target T1, serotonin 5-HT1A receptors (Rattus norvegicus, UniProt P19327).
T1 construct: Hippocampi were dissected and homogenized in 20 volumes of buffer A; from tissue; host or cells: rat hippocampus membranes (male Sprague-Dawley)
T1 sequence (P19327 1-422): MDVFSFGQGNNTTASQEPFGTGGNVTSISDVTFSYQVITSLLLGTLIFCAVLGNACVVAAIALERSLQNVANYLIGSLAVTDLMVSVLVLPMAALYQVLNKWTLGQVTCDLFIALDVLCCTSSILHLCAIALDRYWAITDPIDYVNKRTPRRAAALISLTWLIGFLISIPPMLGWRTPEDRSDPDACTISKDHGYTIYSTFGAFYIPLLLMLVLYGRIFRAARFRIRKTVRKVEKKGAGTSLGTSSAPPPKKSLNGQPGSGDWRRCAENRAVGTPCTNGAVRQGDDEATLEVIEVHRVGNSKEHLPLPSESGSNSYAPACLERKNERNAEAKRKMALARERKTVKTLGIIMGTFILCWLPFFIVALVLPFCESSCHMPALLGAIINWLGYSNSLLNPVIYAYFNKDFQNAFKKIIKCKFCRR
As to the kind of experiment: [35S]GTPγS binding G-protein activation assay, rat hippocampal membranes. Type of series: biochemical. To be noted: for Emax: read-out: Emax, stimulation of [35S]GTPγS binding relative to 5-HT. The method, then:
Agonist efficacy for stimulation of G-protein activation at serotonin 5-HT1A receptors can be determined by [^35S]GTPγS binding assays as follows. Experiments employed brains of male Sprague-Dawley rats which were stored at −70° C. before use in binding assays. Experiments were carried out in triplicate and repeated at least three times. Frozen brains were thawed in ice-cold buffer A (50 mM Hepes containing 150 mM NaCl, 0.2 mM EDTA, 1 mM GTP, 10 μM pargyline; pH 7.4, 23° C.). Hippocampi were dissected and homogenized in 20 volumes of buffer A before incubation at 37° C. for 10 min to dissociate endogenous neurotransmitters from receptors. The homogenate was centrifuged at 20 000 g for 15 min, at 4° C. The pellet was re-suspended in buffer A and recentrifuged as before. The pellet was then re-suspended in buffer B (50 mM Hepes containing 150 mM NaCl, 0.2 mM EDTA, 5 mM MgCl2, 100 μM GDP, 10 μM pargyline), centrifuged as before and re-suspended in buffer B. Membranes were incubated in buffer B with test compounds and 0.1 nM [^35S]GTPγS for 60 min at 37° C. The incubation was terminated by rapid filtration through Whatman GF-B fiber filters using a Brandel harvester. Radioactivity retained on the filters was measured by liquid scintillation counting. Data were analyzed using a nonlinear curve-fitting program (Prism, Graphpad Software, San Diego, Calif., USA), and are expressed as mean value±S.E.M.
It should be noted that 5-HT can activate different 5-HT receptors. Herein, only the proportion of 5-HT's effect which is 5-HT1A receptor-dependent was considered in the calculations.
For orientation: Binding of GTPγS marks nucleotide exchange on a G protein.

Series [2] has as its system TBZ-treated rats (catalepsy). The experiment in a line: Cross-legged position (CLP) catalepsy test, TBZ-induced catalepsy. It is filed as in vivo, rat. As to conditions: TBZ 2 mg/kg i.p. The procedure:
Animals were obtained, housed and handled according to the same protocols described for Example 3. Similarly, drugs were prepared and administered according to the same protocols described for Example 3. All compounds were tested at the dose of 0.63 mg/kg.
Catalepsy induction in rats is a recognized model of Parkinsonism (Duty, S., 2011 Br J Pharmacol. 164, 1357-91). Here, catalepsy was measured using the cross-legged position test (CLP test) according to the method described by (Prinssen, E. P., et al., 1998 Eur J Pharmacol. 356, 189-92). Serotonin 5-HT1A receptor agonists were administered to rats (at least 6 per group) by oral administration (p.o.) 55 minutes before the CLP test, TBZ (2 mg/kg) was administered to rats by intraperitoneal (i.p.) route 30 min before testing. In the CLP test, the hind-limbs were placed over the ipsilateral forelimbs and the time during which an animal remained in this position was determined up to maximum of 30 seconds. The test was repeated three times (inter-trial time: 3 minutes) and the mean of the three trials was used for analysis. Animals were put back in their home cage after each set of tests.

The conditions of series [3]: cited from earlier work.
Series [4] relates to patients with chorea associated with HD. To be noted: cited from earlier work.
Series [5] addresses other 5-HT, dopaminergic, adrenergic receptors. As to conditions: cited from earlier work.
For series [6], the system named is TBZ-treated rats (immobility, depression behavior). As to the kind of experiment: Forced Swim Test, 5-HT1A receptor agonists in TBZ-treated rats. Type of series: in vivo, rat. As to conditions: TBZ […] i.p. The procedure:
The experiments were performed on male Wistar rats (170-200 g) obtained from an accredited animal facility at the Jagiellonian University Medical College, Poland. The animals were housed in group of four in controlled environment (ambient temperature […]; relative humidity 55%±10%; 12-h light/dark cycles (lights on at 8:00). Standard laboratory food (LSM-B) and filtered water were freely available. Animals were assigned randomly to treatment groups. All the experiments were performed by two observers unaware of the treatment applied between 9:00 and 14:00 on separate groups of animals. All animals were used only once. All the experimental procedures complied with the European Communities Council Directive of 24 Nov. 1986 (86/609/EEC) and were in accordance with the 1996 NIH Guide for the Care and Use of Laboratory Animals.
Tetrabenazine (TBZ) was dissolved in a vehicle solution of 0.9% saline and dimethylsulfoxide (DMSO) (20%). 10-μl hydrochloric acid (HCl) was then added to achieve full solubilization of the drug. TBZ (1.5 mg/kg) was administered intraperitoneally (i.p.).
All compounds were given in a volume of 2 ml/kg. […]
The experiment was carried out according to a well-characterized method (Porsolt, R. D., et al., 1978 Eur J Pharmacol 47, 379-91). On the first day of an experiment, the animals (at least n=6 per group) were gently individually placed in Plexiglas cylinders (40 cm high, 18 cm in diameter) containing water (17 cm deep) maintained at 23-25° C. for 15 min. On removal from water, the rats were placed for 30 min in a Plexiglas box under a 60 W incandescent filament bulb to dry. On the following day (24 h later), TBZ (1.5 mg/kg) was administered to rats by intraperitoneal (i.p.) route 90 min before testing. Serotonin 5-HT1A receptor agonists were then administered to rats by oral administration (p.o.) 60 minutes before the rats were re-placed in the cylinder and the total duration of their immobility was recorded during the 5-min test period. The swimming behavior entailed active swimming motions, e.g., moving horizontally around in the cylinder, and immobility was assigned when no additional activity was observed other than that necessary to keep the rat's head above the water.

Setting [7] is: agonist 10 μM, % of stimulation by 5-HT 10 μM (5-HT1A-dependent part).
Where [8] appears, read: 0.63 mg/kg p.o. ((±)8-OH-DPAT s.c.).

For `CCCN(CCC)C1CCc2cccc(O)c2C1` (racemic) [(±)8-OH-DPAT, (±)8-hydroxy-2-(di-n-propylamino)tetralin], in series [1] (setting [7]), the “Emax, stimulation of [35S]GTPγS binding relative to 5-HT” value is “intermediate between that of buspirone and the other compounds; also recorded: intermediate efficacy”. Further, the “effect on TBZ-induced CLP catalepsy duration” value in series [2] (setting [8]) is reported as “almost no CLP catalepsy; also recorded: significantly decreased durations of immobility”. Besides, the oral bioavailability entry in series [3] was “poorly bioavailable by oral route”.
Regarding `COc1cc2c(cc1OC)[C@@H]1CC(=O)[C@@H](CC(C)C)CN1CC2` (racemic) [TBZ, (SS,RR)-3-Isobutyl-9,10-dimethoxy-1,3,4,6,7,11b-hexahydro-pyrido[2,1-a]isoquinolin-2-one], the “patients with symptoms suggestive of Parkinsonism” value in series [4] (12-week double-blind, placebo-controlled study, placebo 0%) is recorded as 15%; in series [4] (48-week open-label study), 10%; in series [4] (80-week open-label study), 3%.
Regarding `NCCc1c[nH]c2ccc(O)cc12` [5-HT, 5-hydroxytryptamine], the “share of 5-HT-induced [35S]GTPγS binding mediated by 5-HT1A receptors” value in series [1] (from WAY100635 (1 μM) co-incubation) amounted to 85%.
On to `Cc1ccc(CNCC2(F)CCN(C(=O)c3ccc(F)c(Cl)c3)CC2)nc1` [befiradol, (3-Chloro-4-fluoro-phenyl)-[4-fluoro-4-{[(5-methyl-pyridin-2-ylmethyl)-amino]-methyl}piperidin-1-yl]methanone], for which the “pKi at other 5-HT, dopaminergic, adrenergic receptors” value in series [5] is given as “less than 6”. For the same molecule, the Emax in series [1] is over 90%. Besides, in series [2] (setting [8]), the “effect on TBZ-induced CLP catalepsy duration” value is given as “almost no CLP catalepsy; also recorded: significantly decreased durations of immobility”. Moreover, the “effect on immobility duration in TBZ-treated rats” value in series [6] (setting [8]) is reported as “significantly decreased durations of immobility”; in series [6] (0.63 mg/kg p.o. ((±)8-OH-DPAT s.c.), listed as Befiradol), “significantly reduced immobility times”.
Take `O=C1CC2(CCCC2)CC(=O)N1CCCCN1CCN(c2ncccn2)CC1` [buspirone]: the maximal effect (Emax) in series [1] (setting [7]) is about 50%. For the same molecule, the “effect on TBZ-induced CLP catalepsy duration” value in series [2] (buspirone 0.63, 2.5 or 5 mg/kg) is on record as “does not diminish TBZ-induced catalepsy behavior; also recorded: None of the doses of buspirone showed durations of catalepsy that differed significantly”. Moreover, the “effect on immobility duration in TBZ-treated rats” value in series [6] (buspirone 0.63 or 2.5 mg/kg p.o.) was “did not reduce immobility”; in series [6] (buspirone 0.63 or 2.5 mg/kg p.o., listed as Buspirone) it was “did not reduce immobility duration significantly”.
In the case of `Cc1cnc(CNCC2(F)CCN(C(=O)c3ccc(F)c(Cl)c3)CC2)nc1` [derivative 1a, 3-chloro-4-fluorophenyl-[4-fluoro-4-[[(5-methylpyrimidin-2-ylmethyl)amino]methyl]piperidin-1-yl]methanone], the maximum response (Emax) in series [1] was over 90%. For the same molecule, the “effect on TBZ-induced CLP catalepsy duration” value in series [2] (setting [8]) is given as “almost no CLP catalepsy; also recorded: significantly decreased durations of catalepsy”.
